Measured values as given in US9328090B2, “Arylethynyl derivatives” (Hoffmann-La Roche Inc., priority 2012, dated 2016).

Biological target: T1, human mGlu5a receptor (Homo sapiens, UniProt P41594)
T1 construct: expressed in transfected cells; host or cells: HEK-293 (monoclonal, stably transfected)
Assay: Intracellular Ca2+ mobilization assay (mGlu5 PAM)
Type: cell-based
Settings: for EC50: HEK-293 cells stably transfected with human mGlu5a, L-glutamate added at EC20; for Efficacy [%]: maximal response in % of the maximal stimulatory effect obtained with saturating L-glutamate
Protocol: A monoclonal HEK-293 cell line stably transfected with a cDNA encoding for the human mGlu5a receptor was generated; for the work with mGlu5 Positive Allosteric Modulators (PAMs), a cell line with low receptor expression levels and low constitutive receptor activity was selected to allow the differentiation of agonistic versus PAM activity. Cells were cultured according to standard protocols (Freshney, 2000) in Dulbecco's Modified Eagle Medium with high glucose supplemented with 1 mM glutamine, 10% (vol/vol) heat-inactivated bovine calf serum, Penicillin/Streptomycin, 50 μg/ml hygromycin and 15 μg/ml blasticidin (all cell culture reagents and antibiotics from Invitrogen, Basel, Switzerland).
About 24 hrs before an experiment, 5×10^4 cells/well were seeded in poly-D-lysine coated, black/clear-bottomed 96-well plates. The cells were loaded with 2.5 μM Fluo-4AM in loading buffer (1×HBSS, 20 mM HEPES) for 1 hr at 37° C. and washed five times with loading buffer. The cells were transferred into a Functional Drug Screening System 7000 (Hamamatsu, Paris, France), and 11 half logarithmic serial dilutions of test compound at 37° C. were added and the cells were incubated for 10-30 min. with on-line recording of fluorescence. Following this pre-incubation step, the agonist L-glutamate was added to the cells at a concentration corresponding to EC20 (typically around 80 μM) with on-line recording of fluorescence; in order to account for day-to-day variations in the responsiveness of cells, the EC20 of glutamate was determined immediately ahead of each experiment by recording of a full dose-response curve of glutamate.
Responses were measured as peak increase in fluorescence minus basal (i.e. fluorescence without addition of L-glutamate), normalized to the maximal stimulatory effect obtained with saturating concentrations of L-glutamate. Graphs were plotted with the % maximal stimulatory using XLfit, a curve fitting program that iteratively plots the data using Levenburg Marquardt algorithm. The single site competition analysis equation used was y=A+((B−A)/(1+((x/C)D))), where y is the % maximal stimulatory effect, A is the minimum y, B is the maximum y, C is the EC50, x is the log 10 of the concentration of the competing compound and D is the slope of the curve (the Hill Coefficient). From these curves the EC50 (concentration at which half maximal stimulation was achieved), the Hill coefficient as well as the maximal response in % of the maximal stimulatory effect obtained with saturating concentrations of L-glutamate were calculated.
A depression of the signal observed after addition of the EC20 concentration of L-glutamate was indicative of an inhibitory activity of the test compound.

T1 sequence (P41594 21-1180 isoform P41594-2 limits assumed): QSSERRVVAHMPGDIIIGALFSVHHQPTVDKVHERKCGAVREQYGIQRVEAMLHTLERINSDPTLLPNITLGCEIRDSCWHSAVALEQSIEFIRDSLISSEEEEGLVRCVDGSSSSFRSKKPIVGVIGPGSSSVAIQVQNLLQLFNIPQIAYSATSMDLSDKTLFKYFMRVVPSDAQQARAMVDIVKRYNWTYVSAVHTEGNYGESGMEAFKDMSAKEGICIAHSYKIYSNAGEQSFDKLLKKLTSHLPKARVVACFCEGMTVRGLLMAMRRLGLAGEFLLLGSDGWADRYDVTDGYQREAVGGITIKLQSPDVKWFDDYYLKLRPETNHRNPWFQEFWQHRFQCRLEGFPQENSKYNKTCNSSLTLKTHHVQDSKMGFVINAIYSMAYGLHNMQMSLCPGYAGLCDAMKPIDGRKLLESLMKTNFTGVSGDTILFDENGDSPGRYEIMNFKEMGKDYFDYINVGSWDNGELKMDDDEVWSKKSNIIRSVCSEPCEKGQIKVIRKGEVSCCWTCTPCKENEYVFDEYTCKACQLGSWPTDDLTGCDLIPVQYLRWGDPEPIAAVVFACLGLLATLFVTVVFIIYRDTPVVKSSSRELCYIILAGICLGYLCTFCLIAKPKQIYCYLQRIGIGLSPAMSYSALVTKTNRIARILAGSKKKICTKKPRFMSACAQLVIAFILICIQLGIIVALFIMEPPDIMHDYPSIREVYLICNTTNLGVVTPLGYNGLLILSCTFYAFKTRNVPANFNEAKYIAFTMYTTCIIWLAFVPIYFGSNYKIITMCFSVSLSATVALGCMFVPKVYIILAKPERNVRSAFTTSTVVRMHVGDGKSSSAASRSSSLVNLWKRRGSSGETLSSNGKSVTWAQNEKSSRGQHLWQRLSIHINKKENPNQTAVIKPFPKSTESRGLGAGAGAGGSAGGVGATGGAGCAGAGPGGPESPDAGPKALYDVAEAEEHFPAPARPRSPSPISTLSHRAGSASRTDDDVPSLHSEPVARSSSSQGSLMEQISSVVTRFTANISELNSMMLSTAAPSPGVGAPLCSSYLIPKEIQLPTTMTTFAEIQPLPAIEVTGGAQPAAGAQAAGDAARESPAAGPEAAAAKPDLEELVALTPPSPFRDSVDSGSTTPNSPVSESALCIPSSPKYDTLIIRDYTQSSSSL

Row | EC50 | Efficacy [%] | SMILES
1 | 8 nM | 19% | O=C1C[C@H]2CCC[C@H]2N1c1ccc(C#Cc2cc(F)ccc2F)cn1 [Example 4, (3aR,6aR)-1-(5-((2,5-Difluorophenyl)ethynyl)pyridin-2-yl)hexahydrocyclopenta[b]pyrrol-2(1H)-one]
2 | 10 nM | 44% | O=C1C[C@H]2CCC[C@H]2N1c1ccc(C#Cc2ccc(F)cc2)cn1 [Example 3, (3aR,6aR)-1-(5-((4-Fluorophenyl)ethynyl)pyridin-2-yl)hexahydrocyclopenta[b]pyrrol-2(1H)-one]
3 | – | 129% | CC1(C)CC(=O)N(c2ccc(C#Cc3ccccc3)cn2)C1 [Ref. 1 Ex. 13, reference compound]
4 | 10 nM | 45% | O=C1C[C@H]2CCC[C@H]2N1c1ccc(C#Cc2ccccc2)cn1 [Example 1, (3aR,6aR)-1-(5-(phenylethynyl)pyridin-2-yl)hexahydrocyclopenta[b]pyrrol-2(1H)-one]
5 | – | 100% | CC1(C)CC(=O)N(c2ccc(C#Cc3cccc(F)c3)cn2)C1 [Ref. 1 Ex. 40, reference compound]
6 | – | 81% | O=C1CC2(CCCC2)CN1c1ccc(C#Cc2ccccc2)cn1 [Ref. 1 Ex. 59, reference compound]
7 | 10 nM | 48% | O=C1C[C@H]2CCC[C@H]2N1c1ccc(C#Cc2cccc(F)c2)cn1 [Example 2, (3aR,6aR)-1-(5-((3-Fluorophenyl)ethynyl)pyridin-2-yl)hexahydrocyclopenta[b]pyrrol-2(1H)-one]
